# The METLIN SMRT retention time set (Domingo-Almenara et al. 2019)
# Assay: gradient 5% acetonitrile 3 min, to 50% in 2 min, to 85% in 15 min, held 3 min, 100 µL/min
# Settings: column: Zorbax Extend-C18 2.1 x 50 mm; eluents: water / acetonitrile, 0.1% formic acid
# Procedure, shortened: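 Values are retention times taken from adduct peaks that software picked and an analyst inspected. The pure standards were run as mixtures of ~100 molecules on HPLC linked to a quadrupole time-of-flight mass spectrometer, in positive and negative ionization mode. A Zorbax Extend-C18 column (2.1 × 50 mm, 1.8 μm) was used at 100 μL/min with water and acetonitrile, each including 0.1% formic acid.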
row,SMILES,RP-LC retention time [s]
1,COc1ccc(-c2c(C)nn3c(N4CCN(c5ccccn5)CC4)cc(C)nc23)cc1OC,600
2,O=C(NCc1ccccc1F)c1cc(=O)n2c(nc3ccccc32)s1,876
3,Cn1ncc2c3ccccc3n(CC(=O)N3CCN(C4CCCCC4)CC3)c2c1=O,622
4,CC1(C)CC(O)CC(C)(C)N1[O-],578
5,O=C(NC1CC1)C1CCCN(c2ncnc3c2nc2n3CCCCC2)C1 (centres undefined),622
6,O=C1C(N2CCN(S(=O)(=O)c3ccc(Cl)s3)CC2)CCN1Cc1ccccn1 (centres undefined),613
7,COc1ccc(CNC(=O)CN2C(=O)C3CCCCN3c3ccc(S(=O)(=O)N(C)C)cc32)cc1 (centres undefined),887
8,CCCNC(=O)C1CCCN(c2ccc(SCC(=O)Nc3ccc(C)cc3Cl)nn2)C1 (centres undefined),748
9,CCNC(=O)N1CCc2c([nH]c3ccc(OC)cc23)C12C(=O)N(C)c1ccccc12 (centres undefined),984
10,Cc1cc2nn(CC(=O)Nc3cc(F)cc(F)c3)c(=O)n2c(Nc2ccc(F)c(C)c2)n1,1070
11,COc1ccc(-c2nnc(-c3cccc(S(=O)(=O)N4CCC(C)CC4)c3)o2)cc1,1110
12,CC(C)OC(=O)COC(=O)c1cn(-c2cccc(F)c2)c(=O)c2ccccc12,1110
13,CN1CCC(N2CCN(C(=O)c3cc(-c4ccc(F)cc4)cn3C)CC2)CC1,576
14,Cc1cnc(C(=O)NC2C[C@H]3CC[C@@H](C2)N3C(=O)c2sccc2C)cn1 (some centres undefined),663
15,Cn1cc(NC(=O)N2CCN(c3ccccn3)CC2)c2ccccc2c1=O,538
16,COc1ccc(-c2cn3cccnc3n2)cc1NC(=O)c1ccccc1F,706
17,O=C(Cn1c(=O)c2cccn2c2ccccc21)NC1CC1,688
18,CN(Cc1ccccc1)c1ccc(-c2noc(CN3CCN(c4ccccc4)CC3)n2)cn1,1100
19,Cc1cc(-c2c(C)sc(C)c2S(=O)(=O)NC2CCCCCC2)n[nH]1,1140
20,CCc1ccccc1S(=O)(=O)Nc1ccc2c(c1)CCC(=O)N2CCOC,816
21,CCOC(=O)c1nnc2c(-c3ccccc3OC)c(C)nn2c1C,924

row,SMILES,RP-LC retention time [s]
1,Cc1ccnn1-c1ccc(SCC(=O)Nc2ccc(F)cc2F)nn1,893
2,O=C(c1ccc(F)cc1F)N1CCN(c2cc(-c3ccc(Cl)cc3)[nH]n2)CC1,894
3,Cc1ccccc1-c1csc2c(=O)n(Cc3ccc(N4CCCC4=O)cc3)cnc12,889
4,O=C(O)/C=C/c1ccc(Cn2ccnc2)cc1,612
5,CC1CCN(S(=O)(=O)c2ccc(-c3nnc(C(=O)N4CCCC4)o3)cc2)CC1,941
6,O=C(Cn1nc2c3sc(N4CCCCC4)nc3ncn2c1=O)Nc1ccccc1,768
7,COc1ccc(Cl)cc1NC(=O)c1c(O)c2cccnc2n(-c2ccc(F)cc2)c1=O,1280
8,CCOc1ccc(-c2nc(-c3ccc4c(c3)oc(=O)n4C)no2)cc1,1130
9,CCc1ccccc1NC(=O)CSc1nnc2c3cc(-c4ccc(C)cc4)nn3ccn12,989
10,COc1cc(C(=O)NC2CCN(c3cc(-c4ccccc4)[nH]n3)C2)cc(OC)c1OC (centres undefined),688
11,FC(F)c1nc2ccccc2n1-c1nc(N2CCOCC2)nc(N2CCOCC2)n1,938
12,CCN1C[C@]2(C)CC[C@H](OC)[C@]34C2[C@H](OC(C)=O)[C@@]2(OCO[C@@]25CC(OC)[C@H]2C[C@]3(O)C5[C@H]2OC)C14 (some centres undefined),662
13,COc1ccc(CCNC(=O)c2ccc(-n3nc(C)cc3C)nc2)cc1OC,758
14,O=C(Nc1cccc(Br)c1)C(=O)c1c[nH]c2ccccc12,1060
15,CCN1CCN(c2cc(C)c3cc(NC(=O)C4CCCCC4)ccc3n2)CC1,579
16,Cc1ccc(Nc2nc(-c3cc(C)ccc3C)cs2)nc1,902
17,Cc1ccc(OCc2nc3c4ccccc4ncn3n2)cc1,934
18,CCCN(CC1CCOC1)S(=O)(=O)c1cc(F)ccc1C (centres undefined),943
19,CNC(=O)C1CN(C(=O)c2ccc(OC)cc2)CC12CCCC2 (centres undefined),570
20,Cc1ccccc1-c1csc(Cc2nc(-c3ccc(Cl)cc3)no2)n1,1330
21,COc1cccc(NC(=O)Cn2c(=O)n(-c3ccc(F)cc3)c(=O)c3c2cc(C)n3C)c1,834

row,SMILES,RP-LC retention time [s]
1,O=C(NCC1CCCO1)c1cc(=O)n(Cc2ccc(Cl)cc2)c2ccccc12 (centres undefined),815
2,COc1ccc(C(=O)Nc2nc3c(s2)Cc2c(Br)ccc(OC)c2-3)cc1OC,1100
3,CCn1cnc(S(=O)(=O)N2CCC(C(=O)NCCc3nc4ccc(C)cc4[nH]3)CC2)c1,589
4,O=C(Cc1ccsc1)N1C[C@H]2C[C@H](C1)[C@H]1CCCC(=O)N1C2,631
5,COC(=O)c1cc2n(n1)CC(C)(C(=O)NC1CCCC1)N(c1ccc(F)cc1C)C2=O (centres undefined),845
6,COCCN1C(=O)[C@H]2CN(Cc3ccc(C)cc3C)C[C@H]2C1=O,644
7,COC(=O)c1c(NC(=O)CN2C(=O)CCC2=O)sc(Cc2ccc3c(c2)OCO3)c1C,864
8,Cn1c(=O)sc2cc(S(=O)(=O)N3CCC(C(=O)NC4CCCC4)CC3)ccc21,777
9,CS(=O)(=O)N1C[C@@H](COc2ccncc2)[C@H](c2ccccn2)C1,542
10,Cn1cnc2c(C(=O)N3CCC(c4ccccc4)C3)nn(-c3ccccc3)c2c1=O (centres undefined),851
11,CCc1noc(NC(C)=O)c1-c1ccc(C)c(S(=O)(=O)Nc2ccc(OC)cc2OC)c1,794
12,Cc1nc(NC(=O)c2ccccc2)nc2cc3c(cc12)OCO3,688
13,Cc1nc(N2CCN(c3ccccn3)CC2)nc2c1C(=O)CC(c1cccs1)C2 (centres undefined),732
14,CC(C)n1c(=O)sc2cc(S(=O)(=O)N3CCC(C(=O)N(C)Cc4ccccc4)CC3)ccc21,997
15,CCOC(=O)c1[nH]c(C)c(CCC(=O)N2CCCC(C(=O)NC3CCCCC3)C2)c1C (centres undefined),822
16,CCn1c(=O)c2ccccc2n(Cc2nc(-c3ccc(Br)cc3)no2)c1=O,1110
17,COc1ccc(NC(=O)N2CC=C(c3cn(C(C)C)c4ncccc34)CC2)cc1,858
18,CC1CCCCN1CCNC(=O)c1csc(-c2ccc(N3CCCC3)nc2)n1 (centres undefined),557
19,CC(C)c1cc(C(=O)NC2CCCCCC2)n[nH]1,836
20,COC(=O)c1cc2c([nH]c1=O)CC(c1ccc(Cl)cc1)CC2=O (centres undefined),728

# More lines, now with the values ahead:
row,RP-LC retention time [s],SMILES
1,832,Cc1nc(Nc2ccc(F)cn2)sc1C(=O)NCc1ccc(F)cc1
2,687,CCCn1cnc2cc(-c3noc(CNC(=O)c4ccc(C)cc4)n3)ccc21
3,620,CC1CN=C2C=C(N3CCN(C(=O)NCCc4ccccc4)CC3)N=CN21 (centres undefined)
4,678,O=C(CN1C(=O)CCCc2ccccc21)N1CCN(C(=O)c2ccco2)CC1
5,931,Cn1cccc1-c1noc(C2CCN(C(=O)C3(c4ccccc4)CC3)C2)n1 (centres undefined)
6,921,CCOC(=O)Cc1ccc(NC(=O)N2CCCC2c2cccs2)cc1 (centres undefined)
7,1020,CC(C)c1noc(-c2ccc(-n3cnc(C(=O)Nc4ccc(F)cc4)c3)nc2)n1
8,1090,O=c1ccc(-c2nc(-c3ccc(F)cc3)no2)nn1Cc1cccc(F)c1
9,733,COc1ccccc1CNC(=O)C1CCN(S(=O)(=O)c2cn(C(C)C)cn2)CC1
10,680,COCC1CN(C(=O)c2ccc3cc[nH]c3c2)CC12CCOCC2 (centres undefined)
11,660,CCc1ccccc1NC(=O)C1CCN(c2nnc3ccccn23)CC1
12,894,CCC1=C(c2ccc(C)cc2)S(=O)(=O)N=C1N1CCC(C(=O)NC(C)Cc2ccco2)CC1 (centres undefined)
13,709,Cc1noc(-c2ccc(-n3ncc(C(=O)NC4CC4)c3C)nc2)n1
14,918,CCc1nnc2ccc(-c3noc(Cc4ccc(C)cc4)n3)cn12
15,628,CCc1nc2cc(N3CCC(C(=O)NC(C)c4ccccn4)CC3)cnc2nc1CC (centres undefined)
16,1170,COc1ccc(NC(=O)c2noc3c2CCCC3)c(OC)c1
17,627,Cc1ccn2cc(C(=O)NC3CCCCC3)nc2c1
18,699,Cc1cc(=O)n(CC(=O)Nc2cc(C)on2)c(N2CCc3ccccc3C2)n1
19,603,CCN1CCN(c2ncc(N3CCC(C(=O)NCc4cccs4)CC3)cn2)CC1
20,817,O=C(NCCc1csc(-c2cccs2)n1)C1CCN(C(=O)C2CCCCC2)CC1
21,601,O=C(NCC1CCN(C(=O)c2cc3ccccc3o2)CC1)C(=O)Nc1cccnc1
22,904,CCN1C(=O)COc2ccc(-c3noc(CNS(=O)(=O)c4ccc(Cl)cc4)n3)cc21
23,689,CCc1nc(OCC(=O)NCc2ccc(N(C)C)cc2)c2c(C)c(C)oc2n1
24,765,Cc1cccc(NC(=O)CN2C(=O)NC3(CCCCC3)C2=O)c1C
25,755,CCc1noc([C@@H]2CC(F)(F)CN2C(=O)c2ccco2)n1
26,708,O=C(O)CCc1conc1-c1ccc(F)cc1
27,863,CCCNC(=O)N1CCN(c2nc3ccccc3n(Cc3ccccc3)c2=O)CC1
